“Also recorded” adds a separate entry of the source. Where two headings read alike, the source gives them in different places. Non-standard residues stand in square brackets, D forms with d. Residues, ends and D or L forms follow the SMILES beside them. *: point of attachment. Dmt = Cc1cc(O)cc(C)c1C[C@H](N)C(=O)O; Tic = O=C(O)[C@@H]1Cc2ccccc2CN1; NHNH2 = NN*
How the values were obtained:
μ-opioid receptors = target: T1, μ-opioid receptors (Rattus norvegicus, UniProt P33535); experiment: Rat brain synaptosome (P2) binding, [3H]DAGO (Example 47)
T1 construct: assayed with a rat brain synaptosomal preparation (P2); from tissue; host or cells: rat brain P2 synaptosomes

μ receptors = μ receptors (Cavia porcellus, UniProt P97266); experiment: Guinea pig ileum (GPI) functional bioassay (Example 48)
Description: (§1) The functional bioactivity of the present inventive compounds was assessed using standard functional bioassays of δ and μ activity in MVD and GPI (Salvadori et al. (1995), supra; and Salvadori et al., J. Med. Chem. 36: 3748-3756 (1993)). […] Dose-response curves were obtained (Salvadori et al. (1995), supra) for both tissues. […] Data were derived from at least four independent tissue samples and dose-response curves from which the pA2 values were determined (Salvadori et al. (1997), supra) according to Arunlakshana and Schild (Br. J. Pharmacol. 14: 48-58 (1959)).

δ-opioid receptors [1] = target: T2, δ-opioid receptors (Rattus norvegicus, UniProt P33533); experiment: Rat brain synaptosome (P2) binding, agonist [3H]DPDPE (Example 47); conditions: for δ/μ selectivity, in words / δ affinity, in words: from Table II binding; for Agonist K1μ/Kiδ: selectivity, Kiδ from agonist radioligand [3H]DPDPE
T2 construct: assayed with a rat brain synaptosomal preparation (P2); from tissue; host or cells: rat brain P2 synaptosomes

δ-opioid receptors [2] = target: T2, δ-opioid receptors; experiment: Rat brain synaptosome (P2) binding, δ antagonist [3H]N,N(CH3)2-Dmt-Tic-OH (Example 47); conditions: for Antagonist K1μ/Kiδ: selectivity, Kiδ from antagonist radioligand [3H]N,N(CH3)2-Dmt-Tic-OH
Description: Briefly, the agonists [^3H]DPDPE (30-60 Ci/mmol, NEN-DuPont) and [^3H]DAGO (30-60 Ci/mmol, Amersham) were used to label δ and μ sites, respectively, under saturation binding conditions (2 hrs at 22° C.). Excess unlabeled peptide (2 μM) established non-specific binding levels and the labeled membranes were rapidly filtered on Whatman GF/C glass fibre filters, thoroughly washed, dried and measured for radioactivity using CytoScint (ICN, Irvine, Calif.). […] The affinity constants (Ki) were calculated according to Cheng and Prusoff (Biochem. Pharmacol. 22: 3099-3108 (1973)).

δ receptors = δ receptors (Mus musculus, UniProt P32300); conditions: for MVD Ke: δ antagonism, Ke = antilog of pA2
Description: as §1

hMDR-1 = hMDR-1 (Homo sapiens, UniProt P08183); experiment: Calcein AM assay for Pgp in hMDR-1 transfected G-185 fibroblasts (Example 49); conditions: for inhibition of hMDR-1 (Pgp), in words: calcein fluorescence
Description: Stably transfected G-185 fibroblasts containing hMDR-1 and NIH 3T3 cell lines were grown to confluent monolayers in DMEM containing 4.5 g glucose/1, 10% fetal calf serum, L-glutamine, penicillin (50 units/ml), streptomycin (50 μg/ml) and 1 mM sodium pyruvate in 5% CO2 at 37° C. G-185 cells were maintained in […] colchicine.
The assay for Pgp is based on the diffusion of non-fluorescent calcein AM across the cell membrane. Calcein AM is then hydrolyzed and accumulates as the fluorescent calcein. In transfected cells expressing excess hMDR-1, Pgp extrudes calcein AM from the cell before hydrolysis occurs; inhibition of hMDR-1 results in the accumulation of intracellular calcein. Transfected G-185 cells and the NIH 3T3 cells were analyzed in triplicate using seven graded dosages of verapamil or the opioid peptides in 96-well plates. Cells (2.5×10^6/well) were incubated in 100 μl culture medium for 15 min at 37° C. and 50 μl of 1 μM calcein AM in PBS, plus 50 μl of verapamil or one of the present inventive compounds in PBS, or 100 μl of PBS alone (control) were added. Cells were mixed and incubated for 15 min at 37° C., then centrifuged for 5 min at 2,000×g, and then washed three times in 200 μl PBS. Cell pellets were resuspended in 200 μl PBS and transferred to white Microfluor Plates (Nunc, Copenhagen, Denmark) in order to measure calcein-specific fluorescence (494 nm absorption; 517 nm emission). Internal controls were carried out with each experiment using verapamil and PBS in order to compare the consistency between cell preparations. Means±SE (error bars) were determined and plotted using Prism™ (GraphPad, San Diego, Calif.).

[3] = rat brain synaptosomes (P2), mean ± SEM, n in parentheses, read-out: Kiμ (nM) [^3H]DAGO
[4] = rat brain synaptosomes (P2), mean ± SEM, n in parentheses, read-out: Kiδ(nM) [^3H]DPDPE
[5] = rat brain synaptosomes (P2), δ antagonist radioligand, mean ± SEM, n in parentheses, read-out: Kiδ(nM) [^3H]N,N(CH3)2-Dmt-Tic-OH

δ receptors, sequence (P32300 whole entry): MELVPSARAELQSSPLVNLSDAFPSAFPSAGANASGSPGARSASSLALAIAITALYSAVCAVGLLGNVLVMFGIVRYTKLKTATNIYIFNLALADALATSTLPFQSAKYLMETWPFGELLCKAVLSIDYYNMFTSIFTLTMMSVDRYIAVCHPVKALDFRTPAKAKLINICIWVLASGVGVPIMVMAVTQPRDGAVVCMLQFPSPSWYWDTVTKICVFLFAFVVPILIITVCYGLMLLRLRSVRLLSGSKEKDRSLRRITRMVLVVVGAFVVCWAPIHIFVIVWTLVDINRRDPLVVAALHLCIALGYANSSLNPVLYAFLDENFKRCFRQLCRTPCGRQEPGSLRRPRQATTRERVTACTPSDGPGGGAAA
hMDR-1, sequence (P08183 whole entry): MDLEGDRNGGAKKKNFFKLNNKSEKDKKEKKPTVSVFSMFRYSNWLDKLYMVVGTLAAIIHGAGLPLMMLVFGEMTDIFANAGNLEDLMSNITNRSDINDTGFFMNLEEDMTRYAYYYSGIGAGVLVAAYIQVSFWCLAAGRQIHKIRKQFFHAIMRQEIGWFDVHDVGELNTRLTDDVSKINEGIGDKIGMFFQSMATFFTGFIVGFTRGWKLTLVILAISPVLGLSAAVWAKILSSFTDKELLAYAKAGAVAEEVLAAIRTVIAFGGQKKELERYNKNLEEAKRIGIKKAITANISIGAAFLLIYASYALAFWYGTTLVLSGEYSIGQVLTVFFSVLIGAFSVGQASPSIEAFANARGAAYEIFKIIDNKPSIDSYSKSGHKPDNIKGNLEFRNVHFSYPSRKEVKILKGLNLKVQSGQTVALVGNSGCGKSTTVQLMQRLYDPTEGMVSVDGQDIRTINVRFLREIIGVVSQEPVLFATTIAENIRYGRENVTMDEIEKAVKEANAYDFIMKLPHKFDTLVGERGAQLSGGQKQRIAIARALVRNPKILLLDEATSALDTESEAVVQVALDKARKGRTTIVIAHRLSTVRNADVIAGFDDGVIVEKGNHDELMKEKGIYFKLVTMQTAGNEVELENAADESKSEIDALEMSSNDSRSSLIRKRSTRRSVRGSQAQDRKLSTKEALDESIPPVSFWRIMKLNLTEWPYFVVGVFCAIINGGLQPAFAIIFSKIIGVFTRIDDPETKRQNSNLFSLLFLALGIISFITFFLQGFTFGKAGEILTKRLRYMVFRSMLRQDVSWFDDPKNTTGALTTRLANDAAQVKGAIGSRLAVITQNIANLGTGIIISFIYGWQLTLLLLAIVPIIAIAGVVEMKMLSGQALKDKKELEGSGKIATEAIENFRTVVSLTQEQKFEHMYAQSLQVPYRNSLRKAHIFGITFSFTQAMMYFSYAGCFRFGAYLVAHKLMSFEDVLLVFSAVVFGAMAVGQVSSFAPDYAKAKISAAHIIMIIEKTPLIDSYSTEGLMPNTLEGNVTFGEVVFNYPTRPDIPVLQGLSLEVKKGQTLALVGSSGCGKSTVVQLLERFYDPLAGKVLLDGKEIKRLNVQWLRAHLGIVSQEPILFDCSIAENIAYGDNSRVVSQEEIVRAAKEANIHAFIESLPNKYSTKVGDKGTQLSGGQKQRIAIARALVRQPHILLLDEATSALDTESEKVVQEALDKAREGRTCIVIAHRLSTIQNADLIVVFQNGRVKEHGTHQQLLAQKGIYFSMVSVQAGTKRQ
μ receptors, sequence (P97266 whole entry, looked up): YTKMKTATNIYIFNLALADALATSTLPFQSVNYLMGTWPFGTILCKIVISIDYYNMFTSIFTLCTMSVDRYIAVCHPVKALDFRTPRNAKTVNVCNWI
T2 sequence (P33533 whole entry): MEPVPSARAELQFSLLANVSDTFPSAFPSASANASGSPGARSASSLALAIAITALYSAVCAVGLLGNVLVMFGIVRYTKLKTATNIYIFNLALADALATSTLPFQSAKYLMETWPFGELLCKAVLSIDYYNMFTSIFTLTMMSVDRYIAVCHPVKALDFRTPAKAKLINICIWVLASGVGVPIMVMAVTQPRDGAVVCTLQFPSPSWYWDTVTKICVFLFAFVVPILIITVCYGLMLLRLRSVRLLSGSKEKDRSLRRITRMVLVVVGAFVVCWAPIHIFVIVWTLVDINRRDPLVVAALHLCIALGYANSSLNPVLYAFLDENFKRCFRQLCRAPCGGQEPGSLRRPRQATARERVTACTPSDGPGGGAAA
T1 sequence (P33535 whole entry): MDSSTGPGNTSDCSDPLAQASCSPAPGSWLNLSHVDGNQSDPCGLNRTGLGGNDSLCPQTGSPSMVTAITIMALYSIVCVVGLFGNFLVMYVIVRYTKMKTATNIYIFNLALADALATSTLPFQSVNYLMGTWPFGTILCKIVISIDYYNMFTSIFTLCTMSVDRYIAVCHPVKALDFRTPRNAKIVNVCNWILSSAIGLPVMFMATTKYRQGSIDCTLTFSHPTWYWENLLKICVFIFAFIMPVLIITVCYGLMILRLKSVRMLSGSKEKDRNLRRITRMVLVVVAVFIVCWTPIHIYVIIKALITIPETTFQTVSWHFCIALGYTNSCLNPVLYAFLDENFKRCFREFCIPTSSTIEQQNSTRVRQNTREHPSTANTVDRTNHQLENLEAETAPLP

## Cc1cc(O)cc(C)c1C[C@H](N)C(=O)N1Cc2ccccc2C[C@H]1C(=O)Nc1nnn[nH]1 [Compound 10, H-Dmt-Tic-NH-tetrazole-5-yl]
μ-opioid receptors; [3]
  Ki: 37 ± 4.5 nM
μ receptors
  bioactivity on GPI (μ), in words: very minimal activity on GPI
δ-opioid receptors [1]
  δ/μ selectivity, in words: essentially nonselective
  Agonist K1μ/Kiδ: 53
δ-opioid receptors [1]; [4]
  Ki: 0.7 ± 0.03 nM
δ-opioid receptors [2]; [5]
  Ki: 9.75 ± 1.73 nM
δ-opioid receptors [2]
  Antagonist K1μ/Kiδ: 4
δ receptors
  bioactivity on MVD (δ), in words: weak δ antagonist
  MVD Ke: 36.3 nM

## CCN(CC)[C@@H](Cc1c(C)cc(O)cc1C)C(=O)N1Cc2ccccc2C[C@H]1C(=O)O [Compound 17, N,N(Et)2-DMT-Tic-OH]
δ-opioid receptors [1]
  Ki: 0.92 ± 0.19 nM
  Agonist K1μ/Kiδ: 35.3 ± 1.96 (3-5)

## deltorphin
hMDR-1
  inhibition of hMDR-1 (Pgp), in words: lack of inhibition

## Cc1cc(O)cc(C)c1C[C@H](N)C(=O)N1Cc2ccccc2C[C@H]1C(=O)NN [Compound 6, H-Dmt-Tic-NHNH2] (H-[Dmt]-[Tic]-NHNH2)
μ-opioid receptors; [3]
  Ki: 85.1 ± 7.3 nM
δ-opioid receptors [1]
  δ/μ selectivity, in words: essentially nonselective
  Agonist K1μ/Kiδ: 86
δ-opioid receptors [1]; [4]
  Ki: 0.99 ± 0.04 nM
δ-opioid receptors [2]; [5]
  Ki: 42 ± 7.9 nM
δ-opioid receptors [2]
  Antagonist K1μ/Kiδ: 2

## H-Tyr-D-Ala-Gly-N-MePhe-Met(O)-ol [DAMME]
hMDR-1
  inhibition of hMDR-1 (Pgp), in words: inactive; also recorded: lack of inhibition

## COC(=O)[C@@H]1Cc2ccccc2CN1C(=O)[C@@H](N)Cc1c(C)cc(O)cc1C [Compound 8, H-Dmt-Tic-OMe] (H-[Dmt]-[Tic]-OMe)
μ-opioid receptors; [3]
  Ki: 423 ± 25 nM
δ-opioid receptors [1]
  δ affinity, in words: lost high δ affinity
  δ/μ selectivity, in words: weakly μ selective
  Agonist K1μ/Kiδ: 44
δ-opioid receptors [1]; [4]
  Ki: 9.64 ± 2.2 nM
δ-opioid receptors [2]; [5]
  Ki: 500 ± 90 nM
δ-opioid receptors [2]
  Antagonist K1μ/Kiδ: 0.8

## Cc1cc(O)cc(C)c1C[C@@H](C(=O)N1Cc2ccccc2C[C@@H]1C(=O)NC12CC3CC(CC(C3)C1)C2)N(C)C [Compound 16, N,N(Me)2-Dmt-D-Tic-NH-1-adamantane]
μ-opioid receptors
  Ki: 50.5 ± 2.6 nM
μ receptors
  EC50: 4.48 µM
  bioactivity on GPI (μ), in words: μM activity on GPI
δ-opioid receptors [1]
  Ki: 140 ± 30 nM
  δ affinity, in words: lost high δ affinity
  δ/μ selectivity, in words: weakly μ selective
  Agonist K1μ/Kiδ: 0.36
δ-opioid receptors [2]
  Ki: 120 ± 25.9 nM
  Antagonist K1μ/Kiδ: 0.42
δ receptors
  bioactivity on MVD (δ), in words: greatly reduced bioactivity on MVD
  MVD Ke: 128 nM
δ receptors; MVD pA2 (range), δ antagonism against deltorphin C, mean (range)
  Kb: 0.123 µM

## COc1ccc(CCN(C)CCCC(C#N)(c2ccc(OC)c(OC)c2)C(C)C)cc1OC (stereo not shown) [verapamil]
hMDR-1
  maximum effective dose: 75 to 100 µM

## C[C@@H](NC(=O)[C@@H](N)Cc1ccc(O)cc1)C(=O)N[C@@H](Cc1ccccc1)C(=O)N[C@@H](Cc1c[nH]c2ccccc12)C(=O)N[C@@H](Cc1ccc(O)cc1)C(N)=O [[Trp^4,Tyr^5]DER, H-Tyr-D-Ala-Phe-Trp-Tyr-NH2] (H-Y[dA]FWY-NH2)
hMDR-1
  inhibition of hMDR-1 (Pgp), in words: inactive

## Cc1cc(O)cc(C)c1CC(CN)C(=O)N1Cc2ccccc2C[C@H]1C(=O)O (stereo partly drawn) [Compound 2, H-αDmt-Tic-OH]
μ-opioid receptors; [3]
  Ki: 1740 ± 16 nM
δ-opioid receptors [1]; [4]
  Ki: 11.2 ± 3.5 nM
δ-opioid receptors [1]
  Agonist K1μ/Kiδ: 155
δ-opioid receptors [2]; [5]
  Ki: 475 ± 37 nM
δ-opioid receptors [2]
  Antagonist K1μ/Kiδ: 4

## Cc1cc(O)cc(C)c1C[C@@H](C(=O)N1Cc2ccccc2C[C@H]1C(=O)O)n1cccc1 [Compound 5, [des-NH2-α-pyrrole-1-yl]-Dmt-Tic-OH]
μ-opioid receptors; [3]
  Ki: 5590 ± 411 nM
δ-opioid receptors [1]; [4]
  Ki: 16.6 ± 2.5 nM
δ-opioid receptors [1]
  Agonist K1μ/Kiδ: 338
δ-opioid receptors [2]; [5]
  Ki: 9.94 ± 2.5 nM
δ-opioid receptors [2]
  Antagonist K1μ/Kiδ: 562
δ receptors
  bioactivity on MVD (δ), in words: detrimental for all bioactivity measurements on MVD
  MVD Ke: 408 nM

Source: patent publication US6916905B2, “Dmt-Tic di-and tri-peptidic derivatives and related compositions and methods of use” (The United States of America as represented by the …, priority 2000, dated 2005)
